From ChEMBL document CHEMBL1240518, “Replacement of the Lys linker with an Arg linker resulting in improved melanoma uptake and reduced renal uptake of Tc-99m-labeled Arg-Gly-Asp-conjugated alpha-melanocyte stimulating hormone hybrid peptide” (Bioorg Med Chem, 2010)
Residues, ends and D or L forms follow the SMILES beside them.

Test: Cytotoxicity against mouse B16-F1 cells assessed as reduction of cell survival after 3 hrs by clonogenic assay relative to control

N=C(N)NCCC[C@@H]1NC(=O)CNC(=O)[C@H](CC(=O)O)NC(=O)[C@H](Cc2ccc(O)cc2)NC(=O)[C@H](CC(=O)O)NC1=O (cyclo(DGRDY))
Activity: 7%
